Values of other authors as cited in PubChem BioAssay AID1259409 (Chemical Carcinogenesis Research Information System (CCRIS), 2018).

Tested on: rodent chemically induced tumor inhibition, incidence and multiplicity
Experiment: CCRIS tumor inhibitor studies
Settings: Route [Inhibitor]: ORAL, Species: RAT, Promoter: NONE USED

O=P(O)(O)OC1C(OP(=O)(O)O)C(OP(=O)(O)O)C(OP(=O)(O)O)C(OP(=O)(O)O)C1OP(=O)(O)O (stereo unspecified)
tumour outcome (control, treated, inhibition, significance) (Carcinogen: 7,12-DIMETHYLBENZ[A]ANTHRACENE, 57-97-6, Dose [Inhibitor]: 0, 2% IN DIET FOR 35 WK BEGINNING POST CARCINOGEN DOSE (STUDY DURATION: 36 WK), Strain/Sex: SPRAGUE-DAWLEY/FEMALE, Target Tissue: Type of Lesion: EAR DUCT: TUMOR, Dose [Carcinogen]: 50 MG/KG BW IN CORN OIL ONCE): 5/15 (33%), 2/15 (13%), 61%, not significant
tumour outcome (control, treated, inhibition, significance) (Carcinogen: 7,12-DIMETHYLBENZ[A]ANTHRACENE, 57-97-6, Dose [Inhibitor]: 0, 2% IN DIET FOR 35 WK BEGINNING POST CARCINOGEN DOSE (STUDY DURATION: 36 WK), Strain/Sex: SPRAGUE-DAWLEY/FEMALE, Target Tissue: Type of Lesion: MAMMARY GLAND: ADENOCARCINOMA OR FIBROADENOMA, Dose [Carcinogen]: 50 MG/KG BW IN CORN OIL ONCE): 14/15 (93%), 15/15 (100%), -8%, not significant
tumour outcome (control, treated, inhibition, significance) (Carcinogen: 7,12-DIMETHYLBENZ[A]ANTHRACENE, 57-97-6, Dose [Inhibitor]: 0, 15 MILLIMOLAR IN DRINKING WATER BEGINNING 1 WK PRIOR TO CARCINOGEN DOSE AND CONTINUING FOR 16 WK (STUDY DURATION: 16, Strain/Sex: SPRAGUE-DAWLEY/FEMALE, Target Tissue: Type of Lesion: MAMMARY GLAND: CARCINOMA, Dose [Carcinogen]: 20 MG IN 1 ML SESAME OIL ONCE): 7/10 (70%), 17/21 (81%), -16%, not calculated
tumour outcome (control, treated, inhibition, significance) (Carcinogen: 7,12-DIMETHYLBENZ[A]ANTHRACENE, 57-97-6, Dose [Inhibitor]: 0, 15 MILLIMOLAR IN DRINKING WATER FOR 47 WK BEGINNING 2 WK PRIOR TO CARCINOGEN DOSE (STUDY DURATION: 47 WK), Strain/Sex: SPRAGUE-DAWLEY/FEMALE, Target Tissue: Type of Lesion: MAMMARY GLAND: TUMOR, Dose [Carcinogen]: 5 MG IN 1 ML CORN OIL ONCE): 37/40 (93%), 27/38 (71%), 24%, p<0.05
tumour outcome (control, treated, inhibition, significance) (Carcinogen: AZOXYMETHANE, 25843-45-2, Dose [Inhibitor]: 0, 2% IN A HIGH FAT LOW FIBER DIET FOR DURATION OF STUDY BEGINNING 3 WK PRIOR TO CARCINOGEN TREATMENT (STUDY DURATION: 3, Strain/Sex: SPRAGUE-DAWLEY/FEMALE, Target Tissue: Type of Lesion: COLON: TUMOR, Dose [Carcinogen]: 15 MG/KG BW 1/WK FOR 2 WK): 65%, 30%, 54%, p<0.05
tumour outcome (control, treated, inhibition, significance) (Carcinogen: AZOXYMETHANE, 25843-45-2, Dose [Inhibitor]: 0, 2% IN DRINKING WATER BEGINNING 1 WK POST CARCINOGEN DOSE AND CONTINUING FOR DURATION OF STUDY (STUDY DURATION: 36 WK), Strain/Sex: F344/MALE, Target Tissue: Type of Lesion: COLON: CARCINOMA, Dose [Carcinogen]: 30 MG/KG ONCE AT 6 WK OF AGE): 10/12 (83%), 3/12 (25%), 70%, p=0.0045
tumour outcome (control, treated, inhibition, significance) (Carcinogen: AZOXYMETHANE, 25843-45-2, Dose [Inhibitor]: 1% IN DRINKING WATER BEGINNING 1 WK PRIOR TO FIRST CARCINOGEN DOSE (STUDY DURATION: 9 MO), Strain/Sex: F344/MALE, Target Tissue: Type of Lesion: LARGE INTESTINE: CARCINOMA, Dose [Carcinogen]: 8 MG/KG BW INJECTED IN HIND LEG 1/WK FOR 12 WK): 100%, 100%, 0%, not significant
tumour outcome (control, treated, inhibition, significance) (Carcinogen: AZOXYMETHANE, 25843-45-2, Dose [Inhibitor]: 2% IN DRINKING WATER BEGINNING 2 WK POST LAST CARCINOGEN DOSE (STUDY DURATION: 10 MO), Strain/Sex: F344/MALE, Target Tissue: Type of Lesion: COLON: TUMOR, Dose [Carcinogen]: 8 MG/KG BW INJECTED IN HIND LEG 1/WK FOR 4 WK): 43%, 10%, 77%, not calculated
tumour outcome (control, treated, inhibition, significance) (Carcinogen: N-METHYL-N-NITROSOUREA, 684-93-5, AZOXYMETHANE, 25843-45-2, Carcinogen: N-METHYL-N-NITROSOUREA, 684-93-5, AZOXYMETHANE, 25843-45-2, Dose [Inhibitor]: 0, 2% IN A HIGH FAT LOW FIBER DIET FOR DURATION OF STUDY BEGINNING 2 WK PRIOR TO CARCINOGEN TREATMENT (STUDY DURATION: 3, Strain/Sex: SPRAGUE-DAWLEY/FEMALE, Target Tissue: Type of Lesion: COLON: TUMOR, Dose [Carcinogen]: 50 MG/KG BW MNU ONCE FOLLOWED BY 15 MG/KG BW AOM 1/WK FOR 2 WK): 70%, 30%, 57%, p<0.05
tumour outcome (control, treated, inhibition, significance) (Carcinogen: N-METHYL-N-NITROSOUREA, 684-93-5, AZOXYMETHANE, 25843-45-2, Carcinogen: N-METHYL-N-NITROSOUREA, 684-93-5, AZOXYMETHANE, 25843-45-2, Dose [Inhibitor]: 0, 2% IN A HIGH FAT LOW FIBER DIET FOR DURATION OF STUDY BEGINNING 2 WK PRIOR TO CARCINOGEN TREATMENT (STUDY DURATION: 3, Strain/Sex: SPRAGUE-DAWLEY/FEMALE, Target Tissue: Type of Lesion: MAMMARY GLAND: CARCINOMA, Dose [Carcinogen]: 50 MG/KG BW MNU ONCE FOLLOWED BY 15 MG/KG BW AOM 1/WK FOR 2 WK): 100%, 50%, 50%, p<0.05
tumour outcome (control, treated, inhibition, significance) (Carcinogen: N-METHYL-N-NITROSOUREA, 684-93-5, Dose [Inhibitor]: 0, 2% IN HIGH FAT LOW FIBER DIET FOR DURATION OF STUDY BEGINNING 2 WK PRIOR TO CARCINOGEN TREATMENT (STUDY DURATION: 32, Strain/Sex: SPRAGUE-DAWLEY/FEMALE, Target Tissue: Type of Lesion: MAMMARY GLAND: CARCINOMA, Dose [Carcinogen]: 50 MG/KG BW ONCE): 95%, 40%, 58%, p<0.05
